# Measured values reported in patent US20230285399A1, “Compound for the treatment and prophylaxis of a lipofuscin-associated disease and/or a disease associated with aged oxidized melanin” (EBERHARD KARLS UNIVERSITAET TUEBINGEN MEDIZINISCHE FAKULTAET, priority 2020, published 2023).
# “Also recorded” adds a separate entry of the source.
# Tests used:
# [1] = system: function of the retina; conditions: mouse, in vivo
# [2] = system: pigmented Abca^4−/− mice; conditions: mouse, in vivo
# [3] = system: pigmented Abca^4−/− mice; assay: Combination of SIN-1 with riboflavin, quantification of fluorescent lipofuscin granules; format: in vivo; conditions: 130 μg SIN-1 alone or with 80 μg Riboflavin, intravitreal, 48 hours; 100% is stated as locally
# [4] = system: pigmented Abca^4−/− mice; assay: Removal of lipofuscin from RPE with SIN-1, fluorescence microscopy (SW-AF, NIR-AF) of semi-thin eye sections; format: in vivo
# Protocol: Pigmented WT mice (12952), pigmented Abca^4-/- mice (12954/SvJae-Abca4[…] albino Abca^4-/- mice^(BALB/c-Abca4tm1Ght) (Stargardt mice) were used in this work. WT mice were purchased from Harlan Laboratories ([…], UK), the knock-out strains were bred in the inventor's in-house facility. Light cycling was 12 h light (approximately 50 lx in cages)/12 h dark, food and water were available ad libitum. Animals were anesthetized by i.p. injection of a mix of fentanyl (0.05 mg/kg body weight), midazolam (5.0 mg/kg body weight) and medetomidine (0.50 mg/kg body weight). […] The mice were 2 years old. The left eyes remained untreated as controls. The mice were killed 48 hours after the injections and the eyes were […]. Mouse eyes were fixed, embedded in epon resin and sectioned according to standard procedures. For fluorescence analysis, post-fixation and staining with heavy metals was omitted. […] Filter sets were a custom made lipofuscin filter set (excitation 370/36 nm, emission 575/15, 400 nm beam splitter) for short wavelength-autofluorescence (SW-AF) and a commercial Cy7 filter set (excitation 708/75 nm, emission 809/81 nm, 757 nm beam splitter) for NIR-AF (Near infrared AF), respectively. The lipofuscin filter set is designed to fit the reported excitation and emission maximums for lipofuscin. Binning x2 was applied for all images and acquisition times, as well as microscope and software settings were held constant for any set of samples to allow comparison of fluorescence intensities. If indicated, images with low AF intensities were post-processed with the Auto adjust colors function of the […] software to allow the localization of weak AF signals. This function enhances the contrast by redefining the darkest pixel as pure black and the brightest pixel as pure white in the histogram on a channel-by-channel basis. Fluorescence intensities were determined using Fiji software. Regions of interest were determined in fluorescence and BF images using the default threshold, and area and integrated optical density (IOD) of the region of interest were measured. […] Student's t-test with JMP 13 software (SAS, Cary, NC, USA) was used for statistical analysis. P<0·05 was considered statistically significant.
# [5] = system: albino Abca^4−/− mice; assay: Removal of lipofuscin from RPE with SIN-1, fluorescence microscopy (SW-AF) of semi-thin eye sections; format: in vivo; conditions: 130 μg SIN-1 into the right eye, 48 hours, vs untreated eyes
# Protocol: Pigmented WT mice (12952), pigmented Abca^4-/- mice (12954/SvJae-Abca4[…] albino Abca^4-/- mice^(BALB/c-Abca4tm1Ght) (Stargardt mice) were used in this work. WT mice were purchased from Harlan Laboratories ([…], UK), the knock-out strains were bred in the inventor's in-house facility. Light cycling was 12 h light (approximately 50 lx in cages)/12 h dark, food and water were available ad libitum. Animals were anesthetized by i.p. injection of a mix of fentanyl (0.05 mg/kg body weight), midazolam (5.0 mg/kg body weight) and medetomidine (0.50 mg/kg body weight). […] The mice were 2 years old. The left eyes remained untreated as controls. The mice were killed 48 hours after the injections and the eyes were […]. Mouse eyes were fixed, embedded in epon resin and sectioned according to standard procedures. For fluorescence analysis, post-fixation and staining with heavy metals was omitted. […] Binning x2 was applied for all images and acquisition times, as well as microscope and software settings were held constant for any set of samples to allow comparison of fluorescence intensities. […] Fluorescence intensities were determined using Fiji software. Regions of interest were determined in fluorescence and BF images using the default threshold, and area and integrated optical density (IOD) of the region of interest were measured. […]
# [6] = system: pigmented Abca^4−/− mice; assay: Analysis of degradation products from lipofuscin (bisretinoids) after SIN-1 by HPLC; format: in vivo; conditions: 130 μg SIN-1 into the right eye, 48 hours, 6 month old mice, whole eyes; stated for all mice
# Protocol: (§1) Seven albino and 6 pigmented mice were used. The left eyes remained untreated as control. After 48 hours the eyes from the Abca^4-/- mice were enucleated, immediately snap-frozen and stored at -80° C. for further processing. All the tissue preparation was made under dim red light and bisretinoids were extracted from the whole eyes and analyzed by HPLC following published protocols (Radu et al. 2004; Fang et al. 2020). Data were presented as picomoles per eye for A2E, iso-A2E, Total A2E or milli-absorbance (mAU) per eye for the other bisretinoids: […], dihydro-A2PE (A2PE-H2), and all-trans-RAL-dimer PE conjugates (at-RAL dimer-PE) as described (Radu et al. 2004).
# [7] = system: albino Abca^4−/− mice; assay: as above; format: in vivo; conditions: 130 μg SIN-1 into the right eye, 48 hours, 6 month old albino mice
# Protocol: as §1
# [8] = SIN-1 treated eye vs untreated eye of the same mouse
Compound,"ERG responses, treated vs untreated eye [1]","fluorescence of lipofuscin (fluorescence intensity, arbitrary units, FIG. 3) [2]",reduction of the amount of fluorescent lipofuscin granules [2] [%],number of lipofuscin granules in RPE cell layer under the fluorescence microscope (FIG. 4) [2],removal of fluorescent lipofuscin granules from the RPE cells [3] [%],"lipofuscin content in the retinal pigment epithelium (RPE), recognized by the loss of SW-AF ([4]; 130 μg SIN-1 into the right eye, 48 hours, mean of 5 eyes vs 5 untreated eyes, mice 2 years old)","NIR-AF fluorescence of the melanosomes (RPE) ([4]; 130 μg SIN-1 into the right eye, 48 hours, vs untreated eye)","NIR-AF in the melanosomes of the choroidal melanocytes [4, 8]","number of lipofuscin granules in SW-AF image of semi thin sections [4, 8]",fluorescence of lipofuscin (SW-AF) [5],"amount of degradation products of lipofuscin (A2E, iso-A2E, Total A2E, A2PE, A2PE-H2, at-RAL dimer-PE) [6]",enhancement of lipofuscin metabolites in albino mice compared with pigmented mice [7]
"O=[N+]([O-])O[C@@H]1CO[C@H]2[C@@H]1OC[C@@H]2O [IS5, Isosorbide mononitrate]",no difference between the treated and the untreated eyes,removed the fluorescence of lipofuscin,77,–,–,–,–,–,–,–,–,–
"O=[N+]([O-])OC1COC2C(O[N+](=O)[O-])COC12 (centres unmarked) [Isoket, 3,6-bisnitrooxyhexahydrofuro[3,2-b]-furan]",no difference between the treated and the untreated eyes,removed the fluorescence of lipofuscin,–,reduced the number of lipofuscin granules clearly,–,–,–,–,–,–,–,–
"N=c1c[n+](N2CCOCC2)[n-]o1 [SIN-1, 3-morpholinosydnonimine]",–,–,–,–,75,significant (p<0.05) reduction,reduced but not significant (p>0.05); also recorded: somewhat diminished,seems to be not effected,reduced in number,no effect,enhanced the amount of the degradation products of lipofuscin significantly,much lesser
